Test results published in ChEMBL document CHEMBL3885881, “DrugMatrix”.

Organism: Rattus norvegicus
Experiment: DrugMatrix - Regimen: Daily Repeat
Assay type: toxicity, organism-based, Sprague-Dawley
Set-up: regimen Daily Repeat, gender Male, age 6-8 weeks
Settings: in vivo, po, route oral GAVAGE, […]; for ABSOLUTE BASOPHIL / ABSOLUTE EOSINOPHIL / ABSOLUTE LYMPHOCYTE / ABSOLUTE MONOCYTE / ABSOLUTE SEGMENTED NEUTROPHIL / BASOPHIL / EOSINOPHIL / ERYTHROCYTE COUNT / HEMATOCRIT / HEMOGLOBIN / LEUKOCYTE COUNT / LYMPHOCYTE / MEAN CORPUSCULAR HEMOGLOBIN / MEAN CORPUSCULAR HEMOGLOBIN CONCENTRATION / MEAN CORPUSCULAR VOLUME / MONOCYTE / NEUTROPHIL / NUCLEATED RED BLOOD CELLS / PLATELET COUNT: tissue Blood; for ALANINE AMINOTRANSFERASE / ALBUMIN / ALKALINE PHOSPHATASE / ASPARTATE AMINOTRANSFERASE / BLOOD UREA NITROGEN / CARBON DIOXIDE / CHLORIDE / CHOLESTEROL / CREATINE PHOSPHOKINASE / CREATININE / GLUCOSE / LACTATE DEHYDROGENASE / LIPASE / PHOSPHORUS / POTASSIUM / SODIUM / TOTAL BILIRUBIN / TOTAL PROTEIN / URIC ACID: tissue Plasma
[1] = 25 mg/kg, 72 h, dose level Low, time 3 day
[2] = 25 mg/kg, 120 h, dose level Low, time 5 day
[3] = 100 mg/kg, 72 h, dose level High, time 3 day
[4] = 100 mg/kg, 120 h, dose level High, time 5 day

CN(C)CCCN1c2ccccc2Sc2ccccc21 [PROMAZINE]
ABSOLUTE BASOPHIL [1]: 0 CELLS/uL | ABSOLUTE EOSINOPHIL [1]: 145.33 CELLS/uL | ABSOLUTE LYMPHOCYTE [1]: 11142.33 CELLS/uL | ABSOLUTE MONOCYTE [1]: 92 CELLS/uL | ABSOLUTE SEGMENTED NEUTROPHIL [1]: 1153.67 CELLS/uL | BASOPHIL [1]: 0% | EOSINOPHIL [1]: 0.67% | ERYTHROCYTE COUNT [1]: 5.31 x10E6/uL | HEMATOCRIT [1]: 33.93% | HEMOGLOBIN [1]: 13.5 G/DL | LEUKOCYTE COUNT [1]: 12.53 x10E3/uL | LYMPHOCYTE [1]: 87.67% | MEAN CORPUSCULAR HEMOGLOBIN [1]: 25.47 pg | MEAN CORPUSCULAR HEMOGLOBIN CONCENTRATION [1]: 39.77 G/DL | MEAN CORPUSCULAR VOLUME [1]: 63.93 fL | MONOCYTE [1]: 1.33% | NEUTROPHIL [1]: 10.33% | NUCLEATED RED BLOOD CELLS [1]: 0.67 /100WBC | PLATELET COUNT [1]: 1124.33 x10E3/uL | ALANINE AMINOTRANSFERASE [1]: 95 u/L | ALBUMIN [1]: 4.03 G/DL | ALKALINE PHOSPHATASE [1]: 542.33 u/L | ASPARTATE AMINOTRANSFERASE [1]: 104 u/L | BLOOD UREA NITROGEN [1]: 14 mg/dL | CARBON DIOXIDE [1]: 32 mmol/L | CHLORIDE [1]: 101.67 MEQ/L | CHOLESTEROL [1]: 76.67 mg/dL | CREATINE PHOSPHOKINASE [1]: 359.33 u/L | CREATININE [1]: 0.17 mg/dL | GLUCOSE [1]: 185.67 mg/dL | LACTATE DEHYDROGENASE [1]: 147.67 u/L | LIPASE [1]: 9.33 u/L | PHOSPHORUS [1]: 12.17 mg/dL | POTASSIUM [1]: 6.17 MEQ/L | SODIUM [1]: 143.27 MEQ/L | TOTAL BILIRUBIN [1]: 0.17 mg/dL | TOTAL PROTEIN [1]: 5.57 G/DL | URIC ACID [1]: 1.23 mg/dL | ABSOLUTE BASOPHIL [2]: 0 CELLS/uL | ABSOLUTE EOSINOPHIL [2]: 84.33 CELLS/uL | ABSOLUTE LYMPHOCYTE [2]: 7389.33 CELLS/uL | ABSOLUTE MONOCYTE [2]: 65.33 CELLS/uL | ABSOLUTE SEGMENTED NEUTROPHIL [2]: 894.33 CELLS/uL | BASOPHIL [2]: 0% | EOSINOPHIL [2]: 1% | ERYTHROCYTE COUNT [2]: 5.37 x10E6/uL | HEMATOCRIT [2]: 34.2% | HEMOGLOBIN [2]: 13.47 G/DL | LEUKOCYTE COUNT [2]: 8.43 x10E3/uL | LYMPHOCYTE [2]: 88.67% | MEAN CORPUSCULAR HEMOGLOBIN [2]: 25.1 pg | MEAN CORPUSCULAR HEMOGLOBIN CONCENTRATION [2]: 39.4 G/DL | MEAN CORPUSCULAR VOLUME [2]: 63.67 fL | MONOCYTE [2]: 0.67% | NEUTROPHIL [2]: 9.67% | NUCLEATED RED BLOOD CELLS [2]: 0.33 /100WBC | PLATELET COUNT [2]: 1228.67 x10E3/uL | ALANINE AMINOTRANSFERASE [2]: 54.33 u/L | ALBUMIN [2]: 4.17 G/DL | ALKALINE PHOSPHATASE [2]: 463.67 u/L | ASPARTATE AMINOTRANSFERASE [2]: 73.33 u/L | BLOOD UREA NITROGEN [2]: 15 mg/dL | CARBON DIOXIDE [2]: 28.33 mmol/L | CHLORIDE [2]: 103.33 MEQ/L | CHOLESTEROL [2]: 61.67 mg/dL | CREATINE PHOSPHOKINASE [2]: 324.67 u/L | CREATININE [2]: 0.27 mg/dL | GLUCOSE [2]: 188.67 mg/dL | LACTATE DEHYDROGENASE [2]: 154 u/L | LIPASE [2]: 10.33 u/L | PHOSPHORUS [2]: 12.03 mg/dL | POTASSIUM [2]: 5.86 MEQ/L | SODIUM [2]: 145.6 MEQ/L | TOTAL BILIRUBIN [2]: 0.23 mg/dL | TOTAL PROTEIN [2]: 5.97 G/DL | URIC ACID [2]: 1.8 mg/dL | ABSOLUTE BASOPHIL [3]: 0 CELLS/uL | ABSOLUTE EOSINOPHIL [3]: 0 CELLS/uL | ABSOLUTE LYMPHOCYTE [3]: 15637.67 CELLS/uL | ABSOLUTE MONOCYTE [3]: 123 CELLS/uL | ABSOLUTE SEGMENTED NEUTROPHIL [3]: 572.67 CELLS/uL | BASOPHIL [3]: 0% | EOSINOPHIL [3]: 0% | ERYTHROCYTE COUNT [3]: 6.09 x10E6/uL | HEMATOCRIT [3]: 37.23% | HEMOGLOBIN [3]: 15.1 G/DL | LEUKOCYTE COUNT [3]: 16.33 x10E3/uL | LYMPHOCYTE [3]: 96% | MEAN CORPUSCULAR HEMOGLOBIN [3]: 24.83 pg | MEAN CORPUSCULAR HEMOGLOBIN CONCENTRATION [3]: 40.57 G/DL | MEAN CORPUSCULAR VOLUME [3]: 61.17 fL | MONOCYTE [3]: 0.67% | NEUTROPHIL [3]: 3.33% | NUCLEATED RED BLOOD CELLS [3]: 0 /100WBC | PLATELET COUNT [3]: 1276.67 x10E3/uL | ALANINE AMINOTRANSFERASE [3]: 60.33 u/L | ALBUMIN [3]: 4.43 G/DL | ALKALINE PHOSPHATASE [3]: 366.67 u/L | ASPARTATE AMINOTRANSFERASE [3]: 101.33 u/L | BLOOD UREA NITROGEN [3]: 17 mg/dL | CARBON DIOXIDE [3]: 28 mmol/L | CHLORIDE [3]: 101.67 MEQ/L | CHOLESTEROL [3]: 88 mg/dL | CREATINE PHOSPHOKINASE [3]: 986.67 u/L | CREATININE [3]: 0.37 mg/dL | GLUCOSE [3]: 131.67 mg/dL | LACTATE DEHYDROGENASE [3]: 335 u/L | LIPASE [3]: 12.67 u/L | PHOSPHORUS [3]: 11.5 mg/dL | POTASSIUM [3]: 6.17 MEQ/L | SODIUM [3]: 143.73 MEQ/L | TOTAL BILIRUBIN [3]: 0.23 mg/dL | TOTAL PROTEIN [3]: 6.1 G/DL | URIC ACID [3]: 1.2 mg/dL | ABSOLUTE BASOPHIL [4]: 0 CELLS/uL | ABSOLUTE EOSINOPHIL [4]: 74.67 CELLS/uL | ABSOLUTE LYMPHOCYTE [4]: 9603.33 CELLS/uL | ABSOLUTE MONOCYTE [4]: 53.33 CELLS/uL | ABSOLUTE SEGMENTED NEUTROPHIL [4]: 302 CELLS/uL | BASOPHIL [4]: 0% | EOSINOPHIL [4]: 0.67% | ERYTHROCYTE COUNT [4]: 5.25 x10E6/uL | HEMATOCRIT [4]: 32.53% | HEMOGLOBIN [4]: 13.13 G/DL | LEUKOCYTE COUNT [4]: 10.03 x10E3/uL | LYMPHOCYTE [4]: 95.67% | MEAN CORPUSCULAR HEMOGLOBIN [4]: 24.97 pg | MEAN CORPUSCULAR HEMOGLOBIN CONCENTRATION [4]: 40.37 G/DL | MEAN CORPUSCULAR VOLUME [4]: 61.93 fL | MONOCYTE [4]: 0.67% | NEUTROPHIL [4]: 3% | NUCLEATED RED BLOOD CELLS [4]: 0 /100WBC | PLATELET COUNT [4]: 1046.33 x10E3/uL | ALANINE AMINOTRANSFERASE [4]: 59.33 u/L | ALBUMIN [4]: 4.03 G/DL | ALKALINE PHOSPHATASE [4]: 341.67 u/L | ASPARTATE AMINOTRANSFERASE [4]: 113 u/L | BLOOD UREA NITROGEN [4]: 19 mg/dL | CARBON DIOXIDE [4]: 25.67 mmol/L | CHLORIDE [4]: 105 MEQ/L | CHOLESTEROL [4]: 57 mg/dL | CREATINE PHOSPHOKINASE [4]: 469 u/L | CREATININE [4]: 0.22 mg/dL | GLUCOSE [4]: 246.33 mg/dL | LACTATE DEHYDROGENASE [4]: 616 u/L | LIPASE [4]: 10.33 u/L | PHOSPHORUS [4]: 12.93 mg/dL | POTASSIUM [4]: 5.03 MEQ/L | SODIUM [4]: 147.63 MEQ/L | TOTAL BILIRUBIN [4]: 0.2 mg/dL | TOTAL PROTEIN [4]: 5.5 G/DL | URIC ACID [4]: 2.07 mg/dL
